This is an account of results in PMC3179684 (Toxicological Sciences, 2011).

Data set [1] addresses T1, CYP2E1 (Mus musculus, UniProt Q05421). Nature of the data set: EO formation in ET-exposed mouse liver microsomes. In kind it is in vitro ADME, B6C3F1 mice. (In general: Liver microsomes are vesicles of endoplasmic reticulum, rich in cytochrome P450 enzymes.)
Data set [2] deals with CYP2E1 (Rattus norvegicus, UniProt P05182). Nature of the data set: EO formation in ET-exposed rat liver microsomes. In kind it is in vitro ADME, Fischer 344 rats.
The target in data set [3] is CYP2E1 (Homo sapiens, UniProt P05181). Kind of data set: EO formation in ET-exposed human liver microsomes. In kind it is in vitro ADME.
Data set [4] relates to CYP. Nature of the data set: EO formation in ET-exposed mouse lung microsomes. In kind it is in vitro ADME, B6C3F1 mice.
Data set [5] relates to CYP. Nature of the data set: EO formation in ET-exposed rat lung microsomes. In kind it is in vitro ADME, Fischer 344 rats.
For data set [6], the target named is T1, CYP2E1. Kind of data set: EO formation in ET-exposed liver microsomes of wild-type mice. Type of data set: in vitro ADME, 129S1/SvImJ mice (wild-type mice).
The subject of data set [7] is CYP. Kind of data set: EO formation in ET-exposed liver microsomes of CYP2E1 knockout mice. Type of data set: in vitro ADME, 129/Sv-Cyp2e1tm1Gonz/J mice (CYP2E1 knockout mice). The note with it: pooled liver microsomes of 50 CYP2E1 knockout mice.
In data set [8] the test system is CYP. Nature of the data set: Metabolic ET elimination in mouse liver microsomes. Type of data set: in vitro ADME, B6C3F1 mice. The note with it: 10 mg protein/ml, ET 170 ppm in vessel atmosphere.
The nature of data set [9]: Thermodynamic partition coefficient medium-to-air. Type of data set: physicochemical. The note with it: microsomal incubations, 37°C (ET n = 5, EO n = 3).
The conditions of data set [10]: mouse, gas uptake; ref Artati et al. (2009); cited from earlier work.
The conditions of data set [11]: rat, gas uptake, cited from earlier work.
The next data set deals with hepatic CYP. As to conditions: rats, 600 ppm ET, cited from earlier work.
The conditions of data set [12]: value used in the physiological toxicokinetic model; ref Csanády et al. (2000); cited from earlier work.
For data set [13] the following is noted: rats; ref Hamm et al., 1984; cited from earlier work.
The conditions of data set [14]: in vitro and in vivo in rodents; ref Victorin and Ståhlberg, 1988; Walker et al., 2000; cited from earlier work.
Data set [15] has as its system epoxide hydrolase (EH). As to conditions: mouse liver microsomes; about the same obtained here; ref Faller et al., 2001; cited from earlier work.
Data set [16] deals with epoxide hydrolase (EH). The note with it: rat liver microsomes; about the same obtained here; ref Faller et al., 2001; cited from earlier work.
For data set [17] the following is noted: GSH 15 mmol/l; ref Faller et al. (2001); cited from earlier work.
For data set [18] the following is noted: 37°C, pH 7, estimated; ref Faller et al., 2001; cited from earlier work.
The conditions of data set [19]: determined using a synthetic iron porphyrin; ref Collman et al., 1986; cited from earlier work.

Where “and” joins values, the source holds several entries; their conditions need not be identical. Equal values may be shown once. Read-outs that look alike come from different tables or passages of the source. Marks after values point to notes of the source that are not given here.

T1 sequence (Q05421 whole entry): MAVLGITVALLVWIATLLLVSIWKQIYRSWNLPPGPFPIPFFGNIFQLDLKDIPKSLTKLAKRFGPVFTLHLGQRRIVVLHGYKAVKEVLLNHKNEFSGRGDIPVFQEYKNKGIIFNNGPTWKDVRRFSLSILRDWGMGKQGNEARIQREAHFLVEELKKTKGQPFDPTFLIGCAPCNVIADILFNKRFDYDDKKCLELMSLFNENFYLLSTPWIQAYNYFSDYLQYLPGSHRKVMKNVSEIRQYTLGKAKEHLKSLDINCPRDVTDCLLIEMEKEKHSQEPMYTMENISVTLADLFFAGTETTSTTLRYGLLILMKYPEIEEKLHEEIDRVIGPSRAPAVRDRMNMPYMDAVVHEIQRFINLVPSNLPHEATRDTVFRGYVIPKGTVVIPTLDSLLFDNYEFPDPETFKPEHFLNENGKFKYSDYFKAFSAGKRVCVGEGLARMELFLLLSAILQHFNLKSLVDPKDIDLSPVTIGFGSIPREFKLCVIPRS
CYP2E1 (Rattus norvegicus, UniProt P05182), sequence (P05182 whole entry): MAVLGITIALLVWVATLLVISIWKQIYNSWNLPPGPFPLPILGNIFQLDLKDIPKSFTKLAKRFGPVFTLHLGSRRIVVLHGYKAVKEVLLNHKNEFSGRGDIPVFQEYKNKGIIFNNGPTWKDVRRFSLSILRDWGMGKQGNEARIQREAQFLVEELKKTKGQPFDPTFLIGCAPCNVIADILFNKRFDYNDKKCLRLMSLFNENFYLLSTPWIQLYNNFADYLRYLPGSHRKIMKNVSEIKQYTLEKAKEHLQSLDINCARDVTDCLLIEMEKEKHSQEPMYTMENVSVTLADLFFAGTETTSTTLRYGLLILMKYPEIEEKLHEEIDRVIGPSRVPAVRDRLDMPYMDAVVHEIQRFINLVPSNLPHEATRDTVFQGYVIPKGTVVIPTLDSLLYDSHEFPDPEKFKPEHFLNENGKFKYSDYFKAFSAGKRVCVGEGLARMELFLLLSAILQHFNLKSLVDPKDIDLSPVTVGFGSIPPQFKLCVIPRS
CYP2E1 (Homo sapiens, UniProt P05181), sequence (P05181 whole entry): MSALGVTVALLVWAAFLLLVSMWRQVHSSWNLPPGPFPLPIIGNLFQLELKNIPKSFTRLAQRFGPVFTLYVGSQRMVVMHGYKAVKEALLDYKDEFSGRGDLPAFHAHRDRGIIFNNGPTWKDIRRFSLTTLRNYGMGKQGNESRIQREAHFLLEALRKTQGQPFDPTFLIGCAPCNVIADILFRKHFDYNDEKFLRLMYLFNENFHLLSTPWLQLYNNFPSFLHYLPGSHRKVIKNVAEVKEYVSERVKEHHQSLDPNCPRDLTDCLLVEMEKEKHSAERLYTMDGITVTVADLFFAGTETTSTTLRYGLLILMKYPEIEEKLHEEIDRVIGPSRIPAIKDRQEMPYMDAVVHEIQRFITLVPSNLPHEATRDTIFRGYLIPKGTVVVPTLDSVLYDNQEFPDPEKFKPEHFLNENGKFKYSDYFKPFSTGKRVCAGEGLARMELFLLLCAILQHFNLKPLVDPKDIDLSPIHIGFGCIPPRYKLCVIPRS

Consider `C=C` [ET, ethylene], for which the “VmaxEO (maximum EO formation rate)” value on CYP2E1 [1] (liver microsomes pooled from 50 mice, 37°C, mean ± SE) was 0.567 nmol/min/mg protein and 0.567 ± 0.038 nmol/min/mg protein; at CYP2E1 [2] (liver microsomes pooled from 10 rats, 37°C, mean ± SE), 0.401 nmol/min/mg protein and 0.401 ± 0.013 nmol/min/mg protein; on CYP2E1 [3] (liver microsomes from one individual, mean ± SE), 0.253 ± 0.0002 nmol/min/mg protein; on CYP2E1 [3] (liver microsomes pooled from 25 humans, 37°C, mean ± SE), 0.219 nmol/min/mg protein and 0.219 ± 0.005 nmol/min/mg protein; with CYP [4] (pooled mouse lung microsomes, mean of 16,500 and 75,400 ppm ET), 0.073 nmol/min/mg protein; with CYP [5] (pooled rat lung microsomes, mean of 18,600 and 57,800 ppm ET), 0.055 nmol/min/mg protein. Also, the “time in which hepatic CYP2E1 decreases to about one third of the initial status” value turned out to be 18 min on CYP2E1 [1] (mice, very high ET concentrations, expected from k4) and 11 min at CYP2E1 [3] (humans, very high ET concentrations, expected from k4). Further, the “Km, predicted from in vitro” value is given as 400 ppm in air on CYP2E1 [1] (mouse, Km in suspension divided by Kst 0.55); 1516 ppm in air at CYP2E1 [2] (rat, Km in suspension divided by Kst 0.50); 963 ppm in air at CYP2E1 [3] (human, Km in suspension divided by Kst 0.33). In addition, the “k3/k4 (partition ratio)” value at CYP2E1 [1] (pooled mouse liver microsomes, mean ± SE) worked out at 100 ± 9; at CYP2E1 [2] (pooled rat liver microsomes, mean ± SE), 169 ± 15; on CYP2E1 [3] (human liver microsomes, mean ± SE), 39 ± 6. Moreover, the “k4 (suicide inactivation rate constant)” value at CYP2E1 [1] (pooled mouse liver microsomes, six ET incubations, mean ± SE) is 0.060 ± 0.005 min⁻¹; at CYP2E1 [2] (pooled rat liver microsomes, eight ET incubations, mean ± SE), 0.070 ± 0.006 min⁻¹; at CYP2E1 [3] (human liver microsomes, nine ET incubations, mean ± SE), 0.098 ± 0.013 min⁻¹; in the data set with CYP [4] (lung microsomes pooled from 150 mice, two incubations), 0.306 min⁻¹ and 0.326 min⁻¹; in the data set on CYP [5] (lung microsomes pooled from 50 rats, two incubations), 0.573 min⁻¹ and 0.392 min⁻¹. The “k3 (catalytic rate constant of EO formation)” value was determined as 5.9 ± 0.6 min⁻¹ on CYP2E1 [1] (pooled mouse liver microsomes, VmaxEO divided by CYP2E1 content, mean ± SE); 11.2 ± 1.5 min⁻¹ on CYP2E1 [2] (pooled rat liver microsomes, VmaxEO divided by CYP2E1 content, mean ± SE); 3.2 ± 0.2 min⁻¹ at CYP2E1 [3] (pooled human liver microsomes, VmaxEO divided by CYP2E1 content, mean ± SE). In addition, the “VmaxEO in wild-type mice relative to CYP2E1 knockout mice” value on CYP2E1 [6] (liver microsomes) is reported as “about 15 times higher”. In addition, the “ratio of VmaxEO/Km in wild-type mice to VmaxEO/Km in CYP2E1 knockout mice” value at CYP2E1 [6] (liver microsomes) was determined as 340. For the same compound, the “VmaxEO (maximum rate of EO formation)” value on CYP2E1 [6] (pooled liver microsomes of 50 wild-type mice) is listed as 1.1 nmol/min/mg protein; in the data set on CYP [7], 0.074 nmol/min/mg protein. For the same compound, in the data set with CYP [8], the “initial rate of metabolic ET elimination” value is given as 0.069 nmol/min/mg protein. For the same compound, in data set [9], the “Keq (thermodynamic partition coefficient medium-to-air)” value was 0.2 ± 0.06 and 0.2. The “Km, determined in vivo” value in [10] is given as 105 ^d ppm in air; in data set [11] (ref Andersen et al. (1980)), 218 ^f ppm in air; in [11] (ref Bolt et al. (1984)) it was 204 ^e ppm in air. Also, the results for the “VmaxET, determined in vivo” value in [10], in data set [11] (ref Andersen et al. (1980)) and in data set [11] (ref Bolt et al. (1984)) were 15 ^d μmol/h/kg, 8.6 ^f μmol/h/kg and 8.5 ^e μmol/h/kg, respectively. Besides, in the data set with hepatic CYP (after 4 h, ref Fennell et al., 2004), the “hepatic 4-nitrophenol hydroxylase activity (predominantly CYP2E1) remaining” value is 50%. Also, the “hepatic CYP remaining after inactivation” value with hepatic CYP (after 360 min of exposure, ref Maples and Dahl, 1993) is 68%. For the same compound, the “apparent Michaelis constant of the ET oxidation in the liver compartment” value in data set [12] is 0.0005 mmol/L. Besides, the long-term carcinogenicity study entry in data set [13] is “negative”. Further, in data set [14], the mutagenicity result was “negative”.
As for `CC1CO1` (centres unmarked) [PO, propylene oxide], the “hepatic microsomal elimination clearance” value is listed as 4.4 μl/min/mg protein in the data set with epoxide hydrolase (EH) [15] and 9.9 μl/min/mg protein in the data set with epoxide hydrolase (EH) [16]. Besides, the “half-life of nonenzymatic GSH conjugation” value in data set [17] is listed as 1.7 h. The “half-life of the noncatalyzed aqueous hydrolysis” value in data set [18] is listed as 88 h.
For `C=Cc1ccccc1` [Styrene, styrene], the “partition ratio k3/k4” value in data set [19] is listed as 10,000.
